These are literature values, as cited in publication PMC7938295 (Biomedical Reports, 2021).

Molecules are shown by their SMILES. pKi: −log10 of the molar value.

The series concerns the target DPP4 (Homo sapiens, UniProt P27487). Particulars: read-out: DPP4 Ki.

Sequence of DPP4 (P27487 whole entry): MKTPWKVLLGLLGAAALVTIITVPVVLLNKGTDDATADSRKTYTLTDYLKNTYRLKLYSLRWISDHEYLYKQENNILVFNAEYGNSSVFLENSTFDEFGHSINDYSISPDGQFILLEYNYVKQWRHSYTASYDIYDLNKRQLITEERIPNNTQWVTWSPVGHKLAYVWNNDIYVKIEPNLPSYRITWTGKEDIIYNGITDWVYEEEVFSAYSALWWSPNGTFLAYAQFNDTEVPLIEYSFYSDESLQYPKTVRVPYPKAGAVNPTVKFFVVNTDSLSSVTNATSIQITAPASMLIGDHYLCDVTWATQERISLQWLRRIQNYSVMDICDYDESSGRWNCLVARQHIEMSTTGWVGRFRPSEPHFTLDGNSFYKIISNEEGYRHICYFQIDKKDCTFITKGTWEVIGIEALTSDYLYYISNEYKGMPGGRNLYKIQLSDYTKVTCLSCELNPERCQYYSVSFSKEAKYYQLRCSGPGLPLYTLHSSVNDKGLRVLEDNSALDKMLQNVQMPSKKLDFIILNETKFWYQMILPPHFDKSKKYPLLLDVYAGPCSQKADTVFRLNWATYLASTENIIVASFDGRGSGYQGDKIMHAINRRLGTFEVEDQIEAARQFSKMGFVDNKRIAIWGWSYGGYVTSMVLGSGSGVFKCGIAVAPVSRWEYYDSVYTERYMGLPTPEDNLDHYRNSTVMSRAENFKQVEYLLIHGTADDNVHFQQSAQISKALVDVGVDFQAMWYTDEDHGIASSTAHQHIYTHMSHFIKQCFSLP

For orientation: pKi means −log10 of the Ki, conventionally taken in molar units. In the case of `O=c1cc(-c2ccccc2)oc2ccccc12` [flavone], the pKi is 4.73.
